Results as given in patent US20080096967A1, “Formulations for Injection of Catecholic Butanes, Including Ndga Compounds, Into Animals” (priority 2005, published 2008).

Assay: Solubility of M4N in formulations containing modified celluloses (visual inspection); for Dissolution After Rotation: key: N represents 'No'; Y represents 'Yes.'
Format: physicochemical
Method: A 10 mL solution of 50% HP-β-CD (w/v) and 0.5% hydroxypropyl methylcellulose (“HPMC”) (w/v) for use as a solubilizing agent and/or excipient was made as follows: 5.9 mL of water suitable for injection into animals (“WFI”) were placed in a glass beaker containing a stir bar. The beaker was placed on a magnetic plate, and the stir bar was set to stir at medium speed. Five grams of HP-β-CD were added slowly to the stirring WFI, using a spatula to direct the HP-β-CD to the center of the beaker. The HP-β-CD solution was stirred for about 24 hr or until the HP-β-CD was dissolved completely upon visual inspection. The resulting solution measured about 9.4 mL. About 0.6 mL of WFI was added to this resulting solution to reach 10 mL, to produce a solution of 50% HP-β-CD (w/v). Fifty milligrams of HPMC were added to the 50% HP-β-CD solution and stirred for about 1 hr or until the HPMC was dissolved upon visual inspection. The final solution was stirred for about 1 hr and was then stored at room temperature, protected from light. This method of making modified cyclodextrins with modified celluloses may be scaled up or down to obtain the desired volume or concentration of HP-β-CD/HPMC solution. Other modified cyclodextrin/modified cellulose solutions may be similarly made, for example, by substituting HP-β-CD with other modified cyclodextrins, or HPMC with other modified celluloses, in the process described above.
A 10 mL solution of M4N at a concentration of about 10 mg/mL in 50% HP-β-CD/0.5% HPMC was made as follows. About 10 mL of the 50% HP-β-CD/0.5% HPMC solution were added to a glass beaker containing a stir bar. The beaker was placed on a magnetic plate and the stir bar was set to stir at medium speed. About 100 mg of M4N were slowly added to the 50% HP-β-CD/0.5% HPMC in the center of the beaker with the aid of a spatula. The M4N/50% HP-β-CD/0.5% HPMC mixture was stirred for 24 hr or until all M4N was uniformly suspended without any clumps being present. The M4N/50% HP-β-CD/0.5% HPMC mixture was heated at about 90° C. for about 30 min. (or longer if a larger volume of solution was desired, for example, 1 hr at 90° C. for 500 mL of the M4N/50% HP-β-CD/0.5% HPMC mixture), or longer as needed to ensure complete dissolution of M4N. […] The final M4N/50% HP-β-CD/0.5% HPMC solution was stored at room temperature and was kept protected from light.
A 10 mL solution of 5% ethylcellulose (“EC”) in ethanol (w/v) for use as a solubilizing agent and/or excipient was made as follows: 10 mL of 100% ethyl alcohol (“EtOH”) were placed in a glass beaker containing a stir bar, covered by a round Teflon® cover. The beaker was placed on a magnetic plate, and the stir bar was set to stir at medium speed. Five hundred (500) milligrams of EC was added slowly to the stirring ethanol, using a spatula to direct the EC to the center of the beaker so as to prevent EC powder from sticking to the beaker wall. The EC solution was stirred for about 2 hr or until the EC was dissolved completely upon visual inspection. The final solution was stored at room temperature, and was protected from light.
A 10 mL solution of M4N at a concentration of about 20 mg/mL in 5% EC (w/v) (the “EC formulation”) was made as follows. About 10 mL of 5% EC formulation, made as described above, were added to a glass beaker containing a stir bar. The beaker was placed on a magnetic plate and the stir bar was set to stir at medium speed, and covered with a round Teflon® cover. About 200 mg of M4N were slowly added to the 5% EC formulation in the center of the beaker with the aid of a spatula to prevent M4N from sticking to the beaker wall. The M4N/EC mixture was stirred for 2 hr or until all M4N had dissolved or was uniformly suspended without any clumps being present. The M4N/EC mixture was heated at about 60° C. for about 30 min. […]

[1] = 50% HP-β-CD, 0.5% HPMC, M4N 1 mg/mL
[2] = 50% HP-β-CD, 0.5% HPMC, M4N 10 mg/mL
[3] = EC 5% (w/v) in EtOH, M4N 1 mg/mL
[4] = EC 5% (w/v) in EtOH, M4N 10 mg/mL
[5] = EC 5% (w/v) in EtOH, M4N 20 mg/mL

COc1ccc(C[C@@H](C)[C@@H](C)Cc2ccc(OC)c(OC)c2)cc1OC [Formulation M4N, meso-1,4-bis(3,4-dimethoxyphenyl)-2,3-dimethylbutane]
Dissolution After Rotation (2.3% HPMC, M4N 1 mg/mL): N
Dissolution After Heating (2.3% HPMC, M4N 1 mg/mL, 90° C.): N at 90 °C
Dissolution After Rotation (2.3% HPMC, M4N 10 mg/mL): N
Dissolution After Heating (2.3% HPMC, M4N 10 mg/mL, 90° C.): N at 90 °C
Dissolution After Rotation (2.3% HPMC, M4N 50 mg/mL): N
Dissolution After Heating (2.3% HPMC, M4N 50 mg/mL, 90° C.): N at 90 °C
Dissolution After Rotation (2.3% HPMC, M4N 100 mg/mL): N
Dissolution After Heating (2.3% HPMC, M4N 100 mg/mL, 90° C.): N at 90 °C
Dissolution After Rotation [1]: N
Stability Time at Room Temperature [1]: >7 days
Dissolution After Heating (50% HP-β-CD, 0.5% HPMC, M4N 1 mg/mL, 90° C.): Y at 90 °C
Dissolution After Rotation [2]: N
Stability Time at Room Temperature [2]: >7 days
Dissolution After Heating (50% HP-β-CD, 0.5% HPMC, M4N 10 mg/mL, 90° C.): Y at 90 °C
Dissolution After Rotation (50% HP-β-CD, 0.5% HPMC, M4N 50 mg/mL): N
Dissolution After Heating (50% HP-β-CD, 0.5% HPMC, M4N 50 mg/mL, 90° C.): N at 90 °C
Dissolution After Rotation (CMC (High Viscosity) 1% (w/v), M4N 1 mg/mL): N
Dissolution After Heating (CMC (High Viscosity) 1% (w/v), M4N 1 mg/mL, 90° C.): N at 90 °C
Dissolution After Rotation (CMC (High Viscosity) 1% (w/v), M4N 10 mg/mL): N
Dissolution After Heating (CMC (High Viscosity) 1% (w/v), M4N 10 mg/mL, 90° C.): N at 90 °C
Dissolution After Rotation (CMC (Low Viscosity) 4%, M4N 1 mg/mL): N
Dissolution After Heating (CMC (Low Viscosity) 4%, M4N 1 mg/mL, 90° C.): N at 90 °C
Dissolution After Rotation (CMC (Low Viscosity) 4%, M4N 10 mg/mL): N
Dissolution After Heating (CMC (Low Viscosity) 4%, M4N 10 mg/mL, 90° C.): N at 90 °C
Dissolution After Rotation [3]: Y
Stability Time at Room Temperature [3]: >3 days
Dissolution After Rotation [4]: N
Stability Time at Room Temperature [4]: >3 days
Dissolution After Heating (EC 5% (w/v) in EtOH, M4N 10 mg/mL, 40° C.): Y at 40 °C
Dissolution After Rotation [5]: N
Stability Time at Room Temperature [5]: >3 days
Dissolution After Heating (EC 5% (w/v) in EtOH, M4N 20 mg/mL, 60° C.): Y at 60 °C
Dissolution After Rotation (EC 5% (w/v) in EtOH, M4N 30 mg/mL): N
Dissolution After Heating (EC 5% (w/v) in EtOH, M4N 30 mg/mL, 60° C.): Y at 60 °C
Dissolution After Rotation (EC 5% (w/v) in EtOH, M4N 50 mg/mL): N
Dissolution After Heating (EC 5% (w/v) in EtOH, M4N 50 mg/mL, 90° C.): Y at 90 °C
Dissolution After Rotation (EC 5% (w/v) in EtOH, M4N 100 mg/mL): N
Dissolution After Heating (EC 5% (w/v) in EtOH, M4N 100 mg/mL, 90° C.): Y at 90 °C
Stability at Room Temperature (M4N 1 mg/mL and 10 mg/mL in 50% HP-β-CD/0.5% HPMC, heated at 90° C., after cool down): greater than 7 days
stable at room temperature (M4N 1 mg/mL in EC formulation (5% EC in EtOH), without heat): greater than 3 days
stable at room temperature (M4N 10 mg/mL in EC formulation, dissolved at 40° C.): greater than 3 days
stable at room temperature (M4N 20 mg/mL in EC formulation, dissolved at 60° C.): greater than 3 days
solution upon cooling (M4N 30 mg/mL in EC formulation, soluble at 60° C.): did not remain in solution upon cooling
dissolution (M4N 50 mg/mL in 50% HP-β-CD/0.5% HPMC at 90° C.): did not dissolve
solution upon cooling (M4N 50 mg/mL or 100 mg/mL in EC formulation, soluble at 90° C.): did not remain in solution upon cooling
Dissolution After Rotation (MC (Low viscosity) 2% (w/v), M4N 1 mg/mL): N
Dissolution After Heating (MC (Low viscosity) 2% (w/v), M4N 1 mg/mL, 90° C.): N at 90 °C
Dissolution After Rotation (MC (Low viscosity) 2% (w/v), M4N 10 mg/mL): N
Dissolution After Heating (MC (Low viscosity) 2% (w/v), M4N 10 mg/mL, 90° C.): N at 90 °C
